Source: patent US5863950A, “HIV protease inhibitors” (Agouron Pharmaceuticals, Inc., priority 1994, dated 1999)
Converted amounts (≈) assume the structure as drawn. Read-outs that look alike come from different tables or passages of the source.

Columns and labels:
[1] = test system: HIV-1 (CEM cells); assay: Anti-HIV MTT assay, inhibition of HIV-induced cell killing, CEM cells; format: cell-based, HIV-1 isolates IIIB and/or RF; settings: Human immunodeficiency virus 1, CCRF-CEM, 144 h, CEM cell line (first position), 6 days, 37° C., read-out: Viral CEM
Excerpt: (§1) SRI has an established program for the primary antiviral analysis of compounds in microtiter assays which measure the ability of a selected compound to inhibit HIV-induced cell killing. This assay involves the conversion of the tetrazolium dye MTT to a colored formazan product by mitochondrial enzymes in metabolically active cells. This assay system is presently used at SRI to screen over 30,000 compounds per year. Briefly, the assay involves the infection of CEM or MT2 cells in round bottom 96-well plates. The compound of interest is added just prior to infection. Following 6 days of incubation at 37° C. the plates are stained with MTT. The results of the assay are quantitated spectrophotometrically on a Molecular Devices Vmax plate reader. The data is analyzed by linear regression utilizing an in-house software program to calculate antiviral activity. (IC25, IC50, IC95) and toxicity (TC25, TC50, TC95) as well as other values.
(§2) Primary antiviral assays are routinely performed in CEM or MT-2 cells.
(§3) Drugs will be solubilized in the appropriate vehicle such as distilled water or DMSO if necessary. Latex gloves, lab coats and masks are used during all phases of the handling process to prevent exposure to potentially harmful agents. The drug is prepared at the appropriate concentration and stored at -20° C. until used by the screening laboratory. The first dilution of each compound is made in a dilution tube with medium to yield a concentration two-fold that of the highest test concentration. Sterile titer tubes are then used to make serial one half-log dilutions of each compound. Following drug dilution, the diluted compound is added to the appropriate well of a 96-well microtiter plate. Up to 12 dilutions can be assayed conveniently in triplicate on a single plate with all appropriate controls including cell control, virus control, toxicity control, drug color control, medium control and plastic (background) control. When testing includes only six dilutions, two drugs can be assayed on a single microtiter plate. The drugs are added to the plate in a final volume of 100 microliters.
(§4) During the time the drug dilutions are prepared, cells are washed and counted. Viability is monitored by trypan blue dye exclusion and assays are not performed if the viability falls below 90%. Cells are maintained in an exponential growth phase and are split 1:2 on the day prior to assay to assure exponential growth rate.
(§5) For the primary screen, the cell lines utilized are CEM and MT-2. Unless otherwise indicated, the medium used is RPMI 1640 with 10% heat-inactivated fetal calf serum (FBS), glutamine and antibiotics.
(§6) Cells are propagated at 37° C. in an atmosphere of 5% CO2 in air. The virus employed for this work is HIV-1 isolates IIIB and/or RF, which are prepared by an acute infection process.
(§7) Briefly, virus-infected cells are pelleted on a daily basis beginning at three days post-infection until the virus has killed all of the cells in the culture. Reverse transcriptase activity and p24 ELISA are used to identify pools with the greatest amount of virus.
(§8) These 24-hour harvests are pooled, filtered and frozen at -90° C. Prior to use in the assay, the infectious pool of virus is titered on all available cell lines in order to determine the amount of virus required in the antiviral assay.
(§9) In general, pools produced by the acute infection method require the addition of one microliter of infectious virus per well resulting in the screening of drugs at a multiplicity of infection of 0.01. In this manner enough virus is prepared and frozen to complete over one thousand microtiter plates, allowing the testing of up to two thousand compounds from a single stock of infectious virus. The use of a single stock of virus for a long period of testing has very favorable effects on the repeatability of the assay systems.
(§10) Virus infection of the CEM and MT-2 cells for the antiviral assay is carried out in a bulk infection process. […]

[2] = test system: HIV-1 (MT-2 cells); assay: Anti-HIV MTT assay, inhibition of HIV-induced cell killing, MT-2 cells; format: cell-based, HIV-1 isolates IIIB and/or RF; settings: Human immunodeficiency virus 1, MT2, 144 h, read-out: Viral MT-2
Excerpt: as §1, §2, §3, §4, §5, §6, §7, §8, §9, §10

[3] = biological target: T1, HIV-1 protease (Human immunodeficiency virus type 1 group M subtype B, UniProt P04585); assay: biochemical; format: biochemical
T1 construct: purified HIV-1 protease
Procedure: 1. Proteolytic activity of purified HIV-1 protease was routinely measured using the chromogenic assay developed by Richards et al. (J. Biol. Chem. 265: 7733 (1990)). Synthetic peptide His-Lys-Ala-Arg-Val-Leu-Phe (pNO2)-Glu-Ala-Nle-Ser-NH2 (American Peptide Company) was used as the substrate.
2. The assay was carried out in 0.5M NaCl, 50 mM MES pH 5.6, 2% DMSO (dimethylsulfoxide) at 37° C. Cleavage of the scissile bond between leucine and paranitro-phenylalanine (Phe(pNO2)) was assayed by spectrophotometric monitoring of the decrease in absorbance at 305 nm. Initial velocity was determined as the rate of decline of absorbance during the first 100 seconds of reaction.
3. […] Between 15-25 concentrations of inhibitor were added and velocity of reaction was measured at each of the concentrations, as described above.
4. Inhibition constants were calculated using the method of Jackson et al. (Adv. in Enzyme Regulation 22: 187 (1984)).

[4] = test system: HIV; assay: antiviral assay (enantiomer comparison, cell line not given); format: cell-based; settings: enantiomers compared with each other
[5] = MT-2 cells (second position), 6 days, 37° C., MTT
[6] = 0.5M NaCl, 50 mM MES pH 5.6, 2% DMSO, 37° C., 200 μM substrate

Compound	IC50 [1] [µg/mL]	IC50 [2, 5] [µg/mL]	IC50 [3, 6] [nM]	Ki [3, 6] [nM]	Ki [3] [nM]	IC50 [3] [nM]	IC50 [2] [µg/mL]	activity in the antiviral assay [4]
CCC1(N(CCO)C(=O)c2ccccc2CCC(O)Cc2ccccc2C(=O)N(CCC(O)CO)C(C)(C)c2ccccc2)CCCC1 (centres unmarked) [Example 100]	0.48 (≈ 0.729 µM)	1.94 (≈ 2.94 µM)	110	7	–	–	–	–
CCC1(N(CCO)C(=O)c2ccccc2CCC(O)Cc2ccc(C)cc2C(=O)N(CCO)C(CC)(CC)c2ccccc2)CCCC1 (centres unmarked) [Example 101]	4.16 (≈ 6.33 µM)	1.67 (≈ 2.54 µM)	102	4	–	–	–	–
CCC1(N(CCO)C(=O)c2ccccc2CCC(O)Cc2ccc(C)cc2C(=O)N(CC2COC(C)(C)OC2)C(C)(C)c2ccccc2)CCCC1 (centres unmarked) [Example 102]	0.42 (≈ 0.589 µM)	0.47 (≈ 0.659 µM)	133	2.3	–	–	–	–
CCC1(N(CCO)C(=O)c2ccccc2CCC(O)Cc2ccc(C)cc2C(=O)N(CC(CO)CO)C(C)(C)c2ccccc2)CCCC1 (centres unmarked) [Example 103]	0.64 (≈ 0.951 µM)	1.15 (≈ 1.71 µM)	106	–	10	–	–	–
CCC1(N(CCO)C(=O)c2ccccc2CCC(O)Cc2ccc(C)cc2C(=O)N(CCC(O)CO)C(C)(C)c2ccccc2)CCCC1 (centres unmarked) [Example 104]	0.58 (≈ 0.862 µM)	0.55 (≈ 0.817 µM)	–	–	9.6	81	–	–
CCC1(N(CCO)C(=O)c2ccccc2CCC(O)Cc2ccc(Cl)cc2C(=O)N(CCO)C(C)(C)c2ccccc2)CCCC1 (centres unmarked) [Example 105]	0.47 (≈ 0.724 µM)	0.49 (≈ 0.755 µM)	86	1	–	–	–	–
CCC1(N(CC2COC(C)(C)OC2)C(=O)c2ccccc2CCC(O)Cc2ccc(C)cc2C(=O)N(CC2COC(C)(C)OC2)C(C)(C)c2ccccc2)CCCC1 (centres unmarked) [Example 106]	3.91 (≈ 4.91 µM)	1.7 (≈ 2.13 µM)	67	3.9	–	–	–	–
CCC1(N(CC(CO)CO)C(=O)c2ccccc2CCC(O)Cc2ccc(C)cc2C(=O)N(CC(CO)CO)C(C)(C)c2ccccc2)CCCC1 (centres unmarked) [Example 107]	1.44 (≈ 2.01 µM)	1.34 (≈ 1.87 µM)	92	32	–	–	–	–
CCC1(N(CCO)C(=O)c2ccccc2CCC(O)Cc2ccc(C)cc2C(=O)N(CCO)C(C)(C)c2ccc(OCCN3CCOCC3)cc2)CCCC1 (centres unmarked) [Example 108]	0.64 (≈ 0.844 µM)	0.56 (≈ 0.739 µM)	108	9.8	–	–	–	–
CCCC(CC)(CC)N(CCO)C(=O)c1cc(C)ccc1CC(O)CCc1ccccc1C(=O)N(CCO)C1(CC)CCCC1 (centres unmarked) [Example 109]	0.79 (≈ 1.27 µM)	–	59	13.6	–	–	0.59 (≈ 0.947 µM)	–
CCC1(N(CCOC(C)=O)C(=O)c2ccccc2CCC(O)Cc2ccc(C)cc2C(=O)N(CCOC(C)=O)C(C)(C)c2ccccc2)CCCC1 (centres unmarked) [Example 110]	0.69 (≈ 0.968 µM)	1.72 (≈ 2.41 µM)	68	5.4	–	–	–	–
CCC1(N(CCO)C(=O)c2ccccc2CCC(O)Cc2ccc(C)cc2C(=O)N(CCO)C(C)(C)c2ccc(OCc3ccc[n+]([O-])c3)cc2)CCCC1 (centres unmarked) [Example 111]	1.03 (≈ 1.37 µM)	1.81 (≈ 2.41 µM)	52	8	–	–	–	–
CCC1(N(CCO)C(=O)c2ccccc2CCC(O)Cc2ccc(C)cc2C(=O)N(CCO)C(C)(C)c2ccc(OCCCN(CCO)CCO)cc2)CCCC1 (centres unmarked) [Example 113]	1.73 (≈ 2.19 µM)	1.58 (≈ 2 µM)	103	10	–	–	–	–
CCC1(N(CCO)C(=O)c2ccccc2CCC(O)Cc2ccc(C)cc2C(=O)N(CCOC(=O)[C@@H](N)C(C)C)C(C)(C)c2ccccc2)CCCC1 (some centres unmarked) [Example 114]	2.11 (≈ 2.9 µM)	1.75 (≈ 2.4 µM)	398	230	–	–	–	–
CCC1(N(CCO)C(=O)c2ccccc2CCC(O)Cc2ccc(C)cc2C(=O)N(CC2CCCO2)C(C)(C)c2ccccc2)CCCC1 (centres unmarked) [Example 115]	4.16 (≈ 6.22 µM)	6.34 (≈ 9.48 µM)	290	17	–	–	–	–
CCC1(N(CCO)C(=O)c2ccccc2CC[C@@H](O)Cc2ccc(C)cc2C(=O)N(CCO)C(C)(C)c2ccccc2)CCCC1 [Example 116a]	–	–	–	–	–	–	–	more active
CCC1(N(CCO)C(=O)c2ccccc2CC[C@H](O)Cc2ccc(C)cc2C(=O)N(CCO)C(C)(C)c2ccccc2)CCCC1 [Example 116b]	–	–	–	–	–	–	–	less active
